Measurements as given in patent US9708314B2, “Heterocyclic amide compound” (NISSAN CHEMICAL INDUSTRIES, LTD., priority 2013, dated 2017).

Legend:
Assay type in all cases: in vivo
Digitaria ciliaris = test: Test Example 4: herbicidal effect by application to foliage (diluvial soil, plastic box); settings: Application herbicide amount 320 g/ha; foliage application
In short: (§1)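 Read-out is a 0–5 visual grade of herbicidal ratio (5: ≥90%, almost withered; 0: ≤5%) taken three weeks after treatment. Compound was applied as a diluted emulsion to stem and leaf parts of 14-day greenhouse-grown plants (25° C. to 30° C.) at rates expressed as g/ha.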

Chenopodium album = test: as above; settings: Application herbicide amount 320 g/ha; foliage application
In short: as §1

Setaria viridis = test: as above; settings: Application herbicide amount 320 g/ha; foliage application
In short: as §1

Alopecurus myosuroides = test: as above; settings: Application herbicide amount 320 g/ha; foliage application
In short: as §1

Avena fatua = test: as above; settings: Application herbicide amount 320 g/ha; foliage application
In short: as §1

Galium spurium = test: as above; settings: Application herbicide amount 320 g/ha; foliage application
In short: as §1

Lolium multiflorum Lam. = test: as above; settings: Application herbicide amount 320 g/ha; foliage application
In short: as §1

Amaranthus retroflexus = test: as above; settings: Application herbicide amount 320 g/ha; foliage application
In short: as §1

Veronica persica = test: as above; settings: Application herbicide amount 320 g/ha; foliage application
In short: as §1

Abutilon theophrasti = test: as above; settings: Application herbicide amount 320 g/ha; foliage application
In short: as §1

Stellaria media = test: as above; settings: Application herbicide amount 320 g/ha; foliage application
In short: as §1

[1] = test system: Echinochloa crus-galli var. crus-galli; test: as above; settings: Application herbicide amount 320 g/ha; foliage application
In short: as §1

Apera spica-venti. = test: as above; settings: Application herbicide amount 320 g/ha; foliage application
In short: as §1

Brassica campestris L. = test: Test Example 4: effect on crop by application to foliage (diluvial soil, plastic box); settings: Application herbicide amount 320 g/ha; foliage application
In short: as §1

[2] = test system: Beta vulgaris ssp. vulgaris; test: as above; settings: Application herbicide amount 320 g/ha; foliage application
In short: as §1

[3] = test system: directly sowed Oryza sativa; test: as above; settings: Application herbicide amount 320 g/ha; foliage application
In short: as §1

Triticum aestivum = test: as above; settings: Application herbicide amount 320 g/ha; foliage application
In short: as §1

Zea mays = test: as above; settings: Application herbicide amount 320 g/ha; foliage application
In short: as §1

Glycine max = test: as above; settings: Application herbicide amount 320 g/ha; foliage application
In short: as §1

Monochoria vaginalis = test: Test Example 1: herbicidal activity, application before weed generation in submerged conditions; settings: Application herbicide amount 320 g/ha; Seventeenth Table
In short: (§2)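 Submerged pot test: alluvial soil, 4 cm water, seeds sown mixed, 2.5-leaf rice transplanted; emulsion in water applied to surface day of sowing, dose g/ha; greenhouse 25–30° C.; 3 wk; 0–5 rating.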

[4] = test system: Echinochloa oryzacola Vasing.; test: as above; settings: Application herbicide amount 320 g/ha; Seventeenth Table
In short: as §2

Scirpus juncoides = test: as above; settings: Application herbicide amount 320 g/ha; Seventeenth Table
In short: as §2

Row | Compound | F (Digitaria ciliaris) herbicidal effect grade (Digitaria ciliaris) | O (Chenopodium album) herbicidal effect grade (Chenopodium album) | G (Setaria viridis) herbicidal effect grade (Setaria viridis) | J (Alopecurus myosuroides) herbicidal effect grade (Alopecurus myosuroides) | I (Avena fatua) herbicidal effect grade (Avena fatua) | Q (Galium spurium) herbicidal effect grade (Galium spurium) | K (Lolium multiflorum Lam.) herbicidal effect grade (Lolium multiflorum Lam.) | N (Amaranthus retroflexus) herbicidal effect grade (Amaranthus retroflexus) | R (Veronica persica) herbicidal effect grade (Veronica persica) | M (Abutilon theophrasti) herbicidal effect grade (Abutilon theophrasti) | P (Stellaria media) herbicidal effect grade (Stellaria media) | H (Echinochloa crus-galli var. crus-galli) herbicidal effect grade [1] | L (Apera spica-venti.) herbicidal effect grade (Apera spica-venti.) | g (Brassica campestris L.) effect on crop grade (Brassica campestris L.) | f (Beta vulgaris ssp. vulgaris) effect on crop grade [2] | b (directly sowed Oryza sativa) effect on crop grade [3] | e (Triticum aestivum) effect on crop grade (Triticum aestivum) | c (Zea mays) effect on crop grade (Zea mays) | d (Glycine max) effect on crop grade (Glycine max) | C: Monochoria vaginalis (herbicidal effect grade) (Monochoria vaginalis) | also measured
1 | Cc1nnc(NC(=O)c2ccc(C(F)(F)F)n3c(C4(C)CC4(Cl)Cl)nnc23)o1 (centres unmarked) [1-105] | 4 (Herbicidal ratio of 70% or more and less than 90%) | 5 (Herbicidal ratio of 90% or more (almost completely withered)) | 1 (Herbicidal ratio of 5% or more and less than 20%) | 1 (Herbicidal ratio of 5% or more and less than 20%) | 1 (Herbicidal ratio of 5% or more and less than 20%) | 1 (Herbicidal ratio of 5% or more and less than 20%) | 1 (Herbicidal ratio of 5% or more and less than 20%) | 3 (Herbicidal ratio of 40% or more and less than 70%) | 3 (Herbicidal ratio of 40% or more and less than 70%) | 3 (Herbicidal ratio of 40% or more and less than 70%) | 4 (Herbicidal ratio of 70% or more and less than 90%) | 4 (Herbicidal ratio of 70% or more and less than 90%) | 1 (Herbicidal ratio of 5% or more and less than 20%) | 3 (Herbicidal ratio of 40% or more and less than 70%) | 4 (Herbicidal ratio of 70% or more and less than 90%) | 0 (Herbicidal ratio of 5% or less (almost no effect)) | 1 (Herbicidal ratio of 5% or more and less than 20%) | 1 (Herbicidal ratio of 5% or more and less than 20%) | 2 (Herbicidal ratio of 20% or more and less than 40%) | 4 (Herbicidal ratio of 70% or more and less than 90%) | A: Echinochloa oryzicola Vasing. (herbicidal effect grade) [4]: 5 (Herbicidal ratio of 90% or more (almost completely withered)); B: Scirpus juncoides (herbicidal effect grade) (Scirpus juncoides): 5 (Herbicidal ratio of 90% or more (almost completely withered))
2 | CCSc1nnc2c(C(=O)Nc3nnco3)ccc(C(F)(F)F)n12 [1-106] | 5 (Herbicidal ratio of 90% or more (almost completely withered)) | 5 (Herbicidal ratio of 90% or more (almost completely withered)) | 5 (Herbicidal ratio of 90% or more (almost completely withered)) | 1 (Herbicidal ratio of 5% or more and less than 20%) | 4 (Herbicidal ratio of 70% or more and less than 90%) | 4 (Herbicidal ratio of 70% or more and less than 90%) | 3 (Herbicidal ratio of 40% or more and less than 70%) | 5 (Herbicidal ratio of 90% or more (almost completely withered)) | 5 (Herbicidal ratio of 90% or more (almost completely withered)) | 4 (Herbicidal ratio of 70% or more and less than 90%) | 5 (Herbicidal ratio of 90% or more (almost completely withered)) | 5 (Herbicidal ratio of 90% or more (almost completely withered)) | 3 (Herbicidal ratio of 40% or more and less than 70%) | 4 (Herbicidal ratio of 70% or more and less than 90%) | 5 (Herbicidal ratio of 90% or more (almost completely withered)) | 3 (Herbicidal ratio of 40% or more and less than 70%) | 3 (Herbicidal ratio of 40% or more and less than 70%) | 1 (Herbicidal ratio of 5% or more and less than 20%) | 3 (Herbicidal ratio of 40% or more and less than 70%) | 4 (Herbicidal ratio of 70% or more and less than 90%) | A: Echinochloa oryzicola Vasing. (herbicidal effect grade) [4]: 5 (Herbicidal ratio of 90% or more (almost completely withered)); B: Scirpus juncoides (herbicidal effect grade) (Scirpus juncoides): 5 (Herbicidal ratio of 90% or more (almost completely withered))
